How the values were obtained:
[1] = system: mouse colon tumor cell-derived cell line Colon-26; test: Antitumor activity, viable cell count (Tetra Color ONE, absorbance 450 nm) in Colon-26; assay type: cell-based; settings: Colon-26, 1.25 μM, compared with Control, FIG. 1
Experimental: (§1) As tumor cells, mouse colon tumor cell-derived cell line Colon-26, human glioblastoma-derived cell line T98G, and human malignant melanoma-derived cell line G361 were used. The tumor cells of each cell line were cultured in RPMI 1640 containing 10% FBS and 0.5% penicillin-streptomycin, as the base medium, in the presence of 5% CO2, at 37° C., under humidity conditions. The tumor cells (5.0×10^4) of each cell line having been cultured to a sufficiently confluent state were seeded in a 1.5 mL tube together with the medium. Each of the rotaxane compounds was dissolved in DMSO as a vehicle (solvent) and was added to the tube in a predetermined concentration so that the total amount is 1000 μL. Then, 100 μL of this was dispensed to each well of a 96-well microplate and was incubated in a CO2 incubator for 24 hours. Subsequently, 10 μL of a viable-cell-counting reagent (Tetra Color ONE, a product of Seikagaku Corporation) was added to each well of the 96-well microplate, and a reaction was performed in the CO2 incubator for 2 hours. The ultraviolet absorbance at 450 nm (control wavelength: 620 nm) was measured […] the reaction with a microplate reader. Note that the higher absorbance means the lager number of viable cells.
The antitumor activities of TRO-A0014 and TRO-A0015 were verified using Colon-26 as tumor cells as in the method of (5-1) described above. […]

[2] = system: human malignant melanoma-derived cell line G361; test: Antitumor activity, viable cell count (Tetra Color ONE, absorbance 450 nm) in G361; assay type: cell-based; settings: G361, at every rotaxane concentrations, FIG. 2
Experimental: as §1
The antitumor activity of TRO-A0010 was verified using T98G and G361 as tumor cells as in the above (5-1).

Row | Substance | cell growth-inhibiting effect at a concentration of 1.25 μM [1] | cell growth-inhibiting effect compared with TRO-A0001 [2]
1 | [2][(3,5-dimethylphenylcarboxyethyl)(3,5-dimethylphenylcarboxypropyl) ammonium-rotaxa-[2,5,8,11,13,16,19,22-octaoxa-1,12(1,2)-dibenzenacyclodocosaphane]] trifluoromethanesulfonate [TRO-A0014] | obviously observed | –
2 | [2][bis(3,5-dimethylphenylcarboxypentyl)ammonium-rotaxa-[2,5,8,11,13,16,19,22-octaoxa-1,12(1,2)-dibenzenacyclodocosaphane]]trifluoromethanesulfonate [TRO-A0010] | – | higher than that of TRO-A0001

Source: patent US8207357B2, “Rotaxane compound and antitumor agent” (Wan Station Co., Ltd., priority 2008, dated 2012)
